Source: US8163909B2, “Substituted hydroxyethyl amine compounds as beta-secretase modulators and methods of use” (Amgen Inc., priority 2007, dated 2012)
Where two headings read alike, the source gives them in different places.

How the values were obtained:
Abeta peptide = experiment: In vivo inhibition of beta-secretase (reduction of Abeta peptide in brain and cerebrospinal fluid); set-up: species or system rat; settings: Rattus norvegicus, po, 4 h, orally administered at 30 mg/kg dose, measured after 4 hours;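 also: abeta peptide quantified by sandwich ELISA with electrochemiluminescence readout in rat brain supernatant or CSF, relative to vehicle-dosed control animals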
[1] = Microsomal stability assay, rat liver microsomes;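 also: rat liver microsomes (0.25 mg/mL) with about 1 µM compound plus 1 mM NADPH, pH 7.4, 37 °C for 30 min, parent left measured by LC-MS/MS against 0 min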
[2] = tested on: Aβ40 in conditioned medium of cells stably expressing Amyloid Precursor Protein (APP); experiment: In vitro BACE cell-based assay (Aβ40 in conditioned medium, sandwich ELISA); settings: Homo sapiens;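 also: compounds added as a dilution series, secreted peptide quantified by europium time-resolved fluorescence readout, potency fitted from percent of control versus compound concentration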
[3] = Microsomal stability assay, human liver microsomes;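 also: pooled human liver microsomes at 0.25 mg/mL with 1 µM compound and NADPH at 37 °C, pH 7.4, for 30 min, unchanged parent quantified by LC-MS/MS against the 0 min sample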
CYP2D6 = CYP2D6 (Homo sapiens, UniProt P10635); experiment: CYP2D6 inhibition assay (bufuralol, pooled human liver microsomes)
[4] = target: Beta Secretase enzyme (BACE) (Homo sapiens, UniProt P56817); experiment: In vitro enzymatic BACE FRET (fluorescence resonance energy transfer) assay; format: biochemical;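 also: fluorescence read after 1 h with 50 nM quenched peptide substrate spanning the BACE cleavage site, in pH 4.2 acetate buffer containing 10% DMSO and nonionic detergent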
CYP3A4 (CYP3A) = CYP3A4 (CYP3A) (Homo sapiens, UniProt P08684); experiment: in vitro; settings: microsomes, pH 7.4;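 also: inhibition of CYP3A-mediated 1-hydroxymidazolam formation after 10 min incubation with NADPH, quantified by HPLC MS relative to metabolite produced without test compound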
[5] = rat cerebrospinal fluid, read-out: percent reduction of abeta peptide in the cerebrospinal fluid of the rat
[6] = HEK293, HEK cells, read-out: HEK cell assay (IC50)
[7] = read-out: BACE1 FRET assay (IC50)
[8] = rat brain, read-out: percent reduction of abeta peptide in the brain of the rat
[9] = HEK293, HEK cell-based assay, IC50's in uM, read-out: HEK cell assay
[10] = 2D6 IC50 (uM), CYP enzyme inhibition
[11] = BACE enzyme assay, IC50's in uM, read-out: BACE1 FRET assay
[12] = HEK293, cell-based assay, HEK cells, IC50's in uM, read-out: HEK cell assay
[13] = 2D6 IC50, CYP enzyme inhibition

CYP3A4 (CYP3A), sequence (P08684 2-503): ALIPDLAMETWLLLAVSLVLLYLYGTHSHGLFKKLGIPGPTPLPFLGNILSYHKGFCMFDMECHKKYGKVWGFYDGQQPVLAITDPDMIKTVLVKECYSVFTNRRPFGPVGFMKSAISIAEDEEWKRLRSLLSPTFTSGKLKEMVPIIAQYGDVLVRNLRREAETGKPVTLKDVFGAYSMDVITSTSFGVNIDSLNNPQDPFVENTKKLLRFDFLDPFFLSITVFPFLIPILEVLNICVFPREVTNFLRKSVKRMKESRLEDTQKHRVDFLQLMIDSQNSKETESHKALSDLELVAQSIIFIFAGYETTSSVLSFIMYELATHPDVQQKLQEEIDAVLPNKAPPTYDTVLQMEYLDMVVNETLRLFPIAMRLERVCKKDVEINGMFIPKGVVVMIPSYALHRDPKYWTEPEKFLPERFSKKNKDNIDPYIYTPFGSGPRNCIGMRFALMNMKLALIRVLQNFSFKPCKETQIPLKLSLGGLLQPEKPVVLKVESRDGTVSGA
CYP2D6, sequence (P10635 whole entry): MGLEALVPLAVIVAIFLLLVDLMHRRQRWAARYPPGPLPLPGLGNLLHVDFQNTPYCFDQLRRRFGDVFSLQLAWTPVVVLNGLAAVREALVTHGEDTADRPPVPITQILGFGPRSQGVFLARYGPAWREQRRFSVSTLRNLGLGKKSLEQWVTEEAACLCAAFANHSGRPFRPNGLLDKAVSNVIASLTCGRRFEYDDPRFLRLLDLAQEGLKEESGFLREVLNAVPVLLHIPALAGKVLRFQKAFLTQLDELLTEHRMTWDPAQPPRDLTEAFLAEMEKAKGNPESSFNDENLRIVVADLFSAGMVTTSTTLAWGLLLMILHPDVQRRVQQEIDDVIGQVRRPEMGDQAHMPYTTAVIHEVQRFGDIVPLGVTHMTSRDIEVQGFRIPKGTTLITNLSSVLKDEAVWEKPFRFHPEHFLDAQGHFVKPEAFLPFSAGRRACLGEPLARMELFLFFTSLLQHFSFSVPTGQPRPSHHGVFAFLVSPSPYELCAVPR
Beta Secretase enzyme (BACE), sequence (P56817 46-501): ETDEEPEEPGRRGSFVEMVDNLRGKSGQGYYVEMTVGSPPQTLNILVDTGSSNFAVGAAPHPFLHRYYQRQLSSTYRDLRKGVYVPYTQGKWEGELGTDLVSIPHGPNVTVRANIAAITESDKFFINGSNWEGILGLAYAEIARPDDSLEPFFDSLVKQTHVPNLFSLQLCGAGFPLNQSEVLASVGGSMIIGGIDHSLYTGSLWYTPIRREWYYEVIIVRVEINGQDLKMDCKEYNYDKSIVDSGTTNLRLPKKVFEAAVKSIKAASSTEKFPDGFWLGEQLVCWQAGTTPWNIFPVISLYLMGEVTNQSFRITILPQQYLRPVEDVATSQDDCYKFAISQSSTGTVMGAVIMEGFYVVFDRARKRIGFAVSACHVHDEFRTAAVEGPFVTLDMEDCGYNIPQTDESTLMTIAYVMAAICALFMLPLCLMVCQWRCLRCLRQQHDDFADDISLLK

Row | RLM ([1]; rat liver microsomes) | IC50 [2, 6] | HLM ([3]; human liver microsomes) | IC50 (CYP2D6; 2D6 IC50, CYP2D6 inhibition) | IC50 [4, 7] | IC50 [2, 9] | IC50 (CYP2D6; [10]) | Compound | inhibition in vivo at 30 mg/kg (Abeta peptide; [5]) | inhibition in vivo at 30 mg/kg (Abeta peptide; [8]) | RLM ([1]; rat liver microsomal data) | HLM ([3]; human liver microsomal data) | IC50 [4, 11] | IC50 [2, 12] | IC50 (CYP2D6; [13]) | IC50 (CYP3A4 (CYP3A))
1 | 35 µL/min/mg | 0.011 µM | 22 µL/min/mg | 2.8 µM | 0.034 µM | – | – | COCC(=O)N[C@@H](Cc1cc(F)cc(F)c1)[C@H](O)CN[C@H]1CC2(CCC2)Oc2c1cc(CC(C)(C)C)nc2-c1cncn1C [Example 597] | 10 to 80% | – | – | – | – | – | – | –
2 | – | 0.035 µM | – | – | 0.03 µM | – | – | CC(C)Cc1cnc2c(c1)[C@@H](NC[C@@H](O)[C@H](Cc1ccc3c(c1)OCO3)NC(=O)[C@@H](C)F)CC1(CCC1)O2 [Example 600] | 10 to 80% | 5 to 80% | – | – | – | – | – | –
3 | 92 µL/min/mg | 0.006 µM | 32 µL/min/mg | 3 µM | 0.017 µM | – | – | CO[C@H](C)C(=O)N[C@@H](Cc1cccc(C#N)c1)[C@H](O)CN[C@H]1CC2(CCC2)Oc2c(-c3ccncc3)cc(CC(C)(C)C)cc21 [Example 638] | 10 to 80% | – | – | – | – | – | – | –
4 | – | – | – | – | – | – | – | COCC(=O)N[C@@H](Cc1ccc(F)c(-c2nccs2)c1)[C@H](O)CN[C@H]1CC2(CCC2)Oc2ncc(CC(C)(C)C)cc21 [Example 650, N-((1S,2R)-3-(((4′S)-6′-(2,2-dimethylpropyl)-3′,4′-dihydrospiro[cyclobutane-1,2′-pyrano[2,3-b]pyridin]-4′-yl)amino)-1-(4-fluoro-3-(1,3-thiazol-2-yl)benzyl)-2-hydroxypropyl)-2-methoxyacetamide] | – | 5 to 80% | – | – | – | – | – | –
5 | – | – | – | – | – | 0.009 µM | 1.4 µM | C#Cc1cccc(C[C@H](NC(=O)COC)[C@H](O)CN[C@H]2CC3(CCC3)Oc3ncc(CC(C)C)cc32)c1 [Example 756] | 10 to 80% | – | 49 µL/min/mg | 53 µL/min/mg | 0.005 µM | – | – | –
6 | – | – | – | – | – | 0.026 µM | 2.1 µM | C#Cc1cc(F)cc(C[C@H](NC(=O)[C@@H](C)OC)[C@H](O)CN[C@H]2CC3(CCC3)Oc3ncc(CC(C)C)cc32)c1 [Example 835] | – | 5 to 80% | 109 µL/min/mg | 48 µL/min/mg | 0.006 µM | – | – | –
7 | – | – | – | – | – | – | – | C#Cc1cccc(C[C@H](NC(=O)COCC)[C@H](O)CN[C@H]2CC3(CCC3)Oc3ncc(CC(C)(C)C)cc32)c1 [Example 870, N-((1S,2R)-3-(((4′S)-6′-(2,2-dimethylpropyl)-3′,4′-dihydrospiro[cyclobutane-1,2′-pyrano[2,3-b]pyridin]-4′-yl)amino)-1-(3-ethynylbenzyl)-2-hydroxypropyl)-2-ethoxyacetamide] | ≥ 50% | – | – | – | 0.004 µM | 0.011 µM | 1.6 µM | –
8 | – | – | – | – | – | – | – | CC(C)(C)Cc1cnc2c(c1)[C@@H](NC[C@@H](O)[C@H](Cc1cc(F)cc(-c3nccs3)c1)NC(=O)[C@H]1CCCO1)CC1(CCC1)O2 [compound 877] | – | – | 64 µL/min/mg | 46 µL/min/mg | 0.005 µM | 0.012 µM | 0.7 µM | 200 nM
9 | – | – | – | – | – | – | – | CO[C@H](C)C(=O)N[C@@H](Cc1cc(F)cc(-c2nccs2)c1)[C@H](O)CN[C@H]1CC2(CCC2)Oc2ncc(C#CC3CC3)cc21 [compound 880] | – | – | 107 µL/min/mg | 71 µL/min/mg | 21 µM | 0.063 µM | 0.3 µM | 300 nM
10 | – | – | – | – | – | – | – | COCC(=O)N[C@@H](Cc1cccc(-c2nccs2)c1)[C@H](O)CN[C@H]1CC2(CCC2)Oc2ncc(C3CCCC3)cc21 [compound 886] | – | – | 64 µL/min/mg | 55 µL/min/mg | 0.143 µM | 0.136 µM | 0.3 µM | 200 nM
11 | – | – | – | – | – | – | – | COCC(=O)N[C@@H](Cc1cc(Br)cc(Br)c1)[C@H](O)CN[C@H]1CC2(CCC2)Oc2ncc(CC(C)(C)C)cc21 [compound 892] | – | – | 274 µL/min/mg | 399 µL/min/mg | 0.07 µM | 0.009 µM | 3.9 µM | 100 nM
12 | – | – | – | – | – | – | – | CO[C@H](C)C(=O)N[C@@H](Cc1cc(-c2nccs2)ccc1F)[C@H](O)CN[C@H]1CC2(CCC2)Oc2ncc(CC(C)(C)C)cc21 [compound 898] | – | – | 121 µL/min/mg | 67 µL/min/mg | 0.01 µM | 0.014 µM | 1 µM | 100 nM
13 | – | – | – | – | – | – | – | CO[C@H](C)C(=O)N[C@@H](Cc1cc(Cl)ccc1F)[C@H](O)CN[C@H]1CC2(CCC2)Oc2ncc(CC(C)(C)C)cc21 [compound 899] | – | – | 543 µL/min/mg | 443 µL/min/mg | 0.005 µM | 0.009 µM | 2.6 µM | 100 nM
14 | – | – | – | – | – | – | – | CCOCC(=O)N[C@@H](Cc1cccc(-c2ncco2)c1)[C@H](O)CN[C@H]1CC2(CCC2)Oc2ncc(CC(C)(C)C)cc21 [compound 901] | – | – | 62 µL/min/mg | 74 µL/min/mg | 0.01 µM | 0.032 µM | 24.8 µM | ≥ 27000 nM
15 | – | – | – | – | – | – | – | CCOCC(=O)N[C@@H](Cc1ccc(F)c(-c2nccs2)c1)[C@H](O)CN[C@H]1CC2(CCC2)Oc2ncc(CC(C)(C)C)cc21 [compound 904] | – | – | 47 µL/min/mg | 38 µL/min/mg | 0.004 µM | 0.062 µM | 0.5 µM | 100 nM
16 | – | – | – | – | – | – | – | CO[C@H](C)C(=O)N[C@@H](Cc1cccc(-c2nccs2)c1F)[C@H](O)CN[C@H]1CC2(CCC2)Oc2ncc(CC(C)(C)C)cc21 [compound 909] | – | – | 127 µL/min/mg | 76 µL/min/mg | 0.157 µM | 0.052 µM | 0.9 µM | 100 nM
17 | – | – | – | – | – | – | – | CC(C)(C)Cc1cnc2c(c1)[C@@H](NC[C@@H](O)[C@H](Cc1cccc(-c3nccs3)c1F)NC(=O)[C@@H]1CCCO1)CC1(CCC1)O2 [compound 910] | – | – | 153 µL/min/mg | 147 µL/min/mg | 0.079 µM | 0.079 µM | 2.4 µM | 100 nM
18 | – | – | – | – | – | – | – | CCOCC(=O)N[C@@H](Cc1cccc(-c2nccs2)c1)[C@H](O)CN[C@H]1CC2(CCC2)Oc2ncc([C@@H]3CC3(C)C)cc21 [compound 914, N-((1S,2R)-3-(((4′S)-6′-((1R)-2,2-dimethylcyclopropyl)-3′,4′-dihydrospiro[cyclobutane-1,2′-pyrano[2,3-b]pyridin]-4′-yl)amino)-2-hydroxy-1-(3-(1,3-thiazol-2-yl)benzyl)propyl)-2-ethoxyacetamide] | – | – | 61 µL/min/mg | 57 µL/min/mg | 0.002 µM | 0.008 µM | 0.2 µM | 200 nM
19 | – | – | – | – | – | – | – | COCC(=O)N[C@@H](Cc1cccc([C@@H]2CCCO2)c1)[C@H](O)CN[C@H]1CC2(CCC2)Oc2ncc(CC(C)(C)C)cc21 [compound 915] | – | – | 590 µL/min/mg | 921 µL/min/mg | 1.96 µM | 0.562 µM | 6.8 µM | 600 nM
20 | – | – | – | – | – | – | – | COCC(=O)N[C@@H](Cc1cccc([C@H]2CCCO2)c1)[C@H](O)CN[C@H]1CC2(CCC2)Oc2ncc(CC(C)(C)C)cc21 [compound 916] | – | – | 644 µL/min/mg | 399 µL/min/mg | 9.5 µM | 2.25 µM | 8.1 µM | 400 nM
21 | – | – | – | – | – | – | – | COCC(=O)N[C@@H](Cc1cc(F)cc(-c2nccs2)c1)C(=O)CN[C@H]1CC2(CCC2)Oc2ncc(CC(C)C)cc21 [compound 918] | – | – | 128 µL/min/mg | 116 µL/min/mg | 0.0164 µM | > 10 µM | 0.5 µM | 100 nM
